Our source for the T cell viability values is patent publication US20250011404A1, “TARGETING APOE ENHANCES T-CELL KILLING IN CANCER IMMUNOTHERAPY” (Children's National Medical Center, priority 2021, published 2025).

Entries after “also recorded” stand apart in the source; their conditions may differ.

This experiment concerns activated mouse T cells. Description: Viability of CD3/CD28-activated T cells, flow cytometry with Sytox Red dead cell stain. The format is cell-based. The conditions noted are these: T cells activated with CD3/CD28 dynabeads; COG133 0, 3, 9, 15 and 30 μM; 48 hr. On the procedure:
FIG. 14A: T cells isolated from naïve mouse spleens were cultured in RPMI media, WT B16 conditioned media and apoE^−/− B16 conditioned media for 48 hr and the media was analyzed with ProcartaPlex multiplex immunoassay. […] Remarkably, these effects were reversed by incubating T-cells with conditioned media from apoE^−/− cells, similar to T-cells activated in control RPMI media alone. Results are expressed as mean score±SD. *p<0.05; **p<0.005; ***p<0.001, determined by unpaired two-tailed Student's t-test. FIG. 14B: The effect of apoE agonist peptide COG133 on the viability of activated mouse T cells was tested by culturing the cells in the presence of the indicated concentrations of peptide for 48 hr and cell death was quantified with flow cytometry using the APC-conjugated Sytox Red dead cell stain. […] The number in Quadrant 2 is the percentage of dead cells.
T cells were activated with CD3/CD28 dynabeads and the effects of COG133 (0, 3, 9, 15 and 30 μM concentrations) on T cell apoptosis were evaluated.
Spleens were collected from mice euthanized by C02 narcosis and cervical dislocation. Spleens were pulverized through a 40-μm mesh cell strainer and treated with ACK lysing buffer (Thermo Fisher) for 10 seconds to remove erythrocytes. […]

Consider “COG133: a fragment of apoE peptide, which competes with the apoE holoprotein for binding the LDL receptors and acts as an apoE mimetic”, for which the T cell viability result is “diminished in a dose dependent manner; also recorded: decreases in a dose dependent fashion”.
